For orientation: viability means a read-out of living cells in per cent, often relative to untreated cells. By inhibition is commonly meant how much of the control response was suppressed.

SMILES strings stand for the structures.

The conditions of data set [1]: pH less than 2 or pH above 8; cited from earlier work.
Data set [2] relates to Human Keratinocytes. Kind of data set: Glutathione assay (total glutathione after menadione challenge). Type of data set: cell-based. How it is done: Human Keratinocytes (Promocell, Heidelberg, Germany) were maintained in EpiLife® medium containing 60 uM calcium chloride and 1% Human Keratinocyte Growth Supplement (both media components from ThermoFisher Scientific) in a humidified incubator with an atmosphere containing 5% CO2 at 37° C. The medium was refreshed every 2-3 days. Subsequently, cells were trypsinized at 90% confluency and seeded at a density of 1×10^4 per well into 96-well plates with white wall and clear bottom. One or two days after seeding, cell medium was replaced with Hank's Balanced Salt Solution (HBSS), and keratinocytes were pre-treated with GAP (or 0.12-0.240 mM sodium hydroxide vehicle control, pH 7.5) alone or in combination with additional test reagents described above or L-cystine esters alone for 1-2 hours. The concentration of all amino acids constituting the GAP mixture used in this assay are designated in the data tables, and fully described in the abbreviations list below.
After one or two hours of pre-treatment with GAP or additional test reagents, alone or in combination, keratinocytes were then challenged with 25 uM menadione (Sigma-Aldrich), a known inducer of oxidative stress. After 18-20 hours, cells were harvested and analyzed for total glutathione levels using a commercially available kit (GSH-GSSG GLo Assay, Promega), a luminescence-based system for the detection and quantification of total glutathione in cultured cells. In summary, after cell treatment, the media was removed and replaced with a cell lysis reagent for 5 minutes at 20-25° C.; note, all remaining steps were also conducted at 20-25° C. Next, a luciferase generation reagent was added to each well and incubated for 30 minutes. Following this step, a luciferin detection reagent was added to each well and plates were incubated for 15 minutes. Finally, plates were then read for luminescence in a FlexStation 3 plate reader (Molecular Devices). Total glutathione levels were calculated after interpolation of glutathione concentrations from a standard curve. Experimental conditions were typically conducted in at least triplicate determinations. Statistical significance was calculated using 1-way ANOVA. Percent protection was calculated by using the calculated glutathione levels from each experiment in the following equation: […]

The test system of data set [3] is Human Keratinocytes. Put plainly: Reactive Oxygen Species (ROS) assay. Type of data set: cell-based. The note with it: 18 hours; for activity at 20 µM / activity at 40 µM / activity at 80 µM / activity at 160 µM: Homo sapiens, Keratinocyte, read-out: ROS inhibition (% of vehicle control); for activity at 20 µM / ROS % Protection (improvement vs. vehicle control + menadione): 20 uM + menadione; for activity at 40 µM: 40 uM + menadione; for activity at 80 µM: 80 uM + menadione; for activity at 160 µM: 160 uM + menadione. How it is done: Human Keratinocytes (Promocell, Heidelberg, Germany) were maintained in EpiLife® keratinocyte medium containing 60 uM calcium chloride and 1% Human Keratinocyte Growth Supplement (HKGS) in a humidified incubator with an atmosphere containing 5% CO2 at 37° C. The medium was refreshed every other day. Subsequently, cells were trypsinized at 90% confluency and seeded at a density of 1-2×10^4 per well into 96-well plates with black wall and clear bottom. On the second day after seeding, cell medium was replaced with Hank's Balanced Salt Solution (HBSS) with or without menadione (10-25 uM), GAP, GAP vehicle (0.2 mM NaOH, pH 7.5), above-described additional test reagents, or combinations of GAP with additional test reagents or L-cystine esters alone, and incubated for additional 18 hours. For ROS detection, CellROX green (Life Tech, Thermo Fisher Scientific, Rockford, USA) reagent was added into each well to a final concentration of 15-25 uM and incubated for additional 2-4 hours at 37° C. in a humidified incubator. The ROS fluorescence was detected using a Tecan microplate reader (Excitation/Emission=490/525). Relative ROS production was calculated with normalization based on the vehicle control treatment which was set to 100%. Where indicated, percent protection was calculated as a comparison to menadione alone treatment, using the measured relative fluorescent units in the following equation: […]
ROS levels were evaluated together with cell viability because it is possible to get a false negative for ROS if treatment is so toxic, that at the time of assay, cells are dead (and there are no longer any detectable ROS). Decrease in ROS levels is meaningful if cells are still viable.

Data set [4] deals with Human Keratinocytes. Put plainly: Cell viability assay (CCK-8). Type of data set: cell-based. The note with it: 18 hours; for viability at 20 µM / viability at 40 µM / viability at 80 µM / viability at 160 µM: Homo sapiens, Keratinocyte, read-out: Cell viability (% of vehicle control); for viability at 160 µM: 160 uM + menadione. How it is done:
Human Keratinocytes (Promocell, Heidelberg, Germany) were maintained in EpiLife® keratinocyte medium containing 60 uM calcium chloride and 1% Human Keratinocyte Growth Supplement (HKGS). The medium was refreshed every other day. Subsequently, cells were trypsinized at 90% confluency and seeded at a density of 2×10^4 per well into 96-well transparent tissue culture plates. On the second day after seeding, cell medium was replaced with treatments as described above in ROS assay section. After 18 hours, […] (CCK-8) reagent (Dojindo, Kumamoto, Japan) was diluted 1:10 in HBSS and incubated with cells for 4 h at 37° C. in a humidified incubator. Optical absorption at 450 nm was measured using a Tecan Safire2 plate reader. Relative viability was calculated with normalization based on the vehicle control treatment, which was set to 100%.
Where indicated, percent protection was calculated as a comparison to menadione alone treatment, using the measured relative absorbance units in the following equation: […]

The subject of data set [5] is Human primary melanocytes. Put plainly: Melanin content assay (melanin synthesis inhibition). The note with it: Melanocyte, 72 hours treatment. Type of data set: cell-based. As for the experimental part:
Human primary melanocytes (Cascade Biologics, now ThermoFisher Scientific) were grown in melanocytes growth medium (MGM) with human melanocyte growth supplement (both media components from ThermoFisher Scientific). Melanocytes were seeded at 5×10^4 cells/well in 24 well-plates and incubated in a humidified incubator at 37° C. with 5% CO2 atmosphere. After 24 hours of incubation, cell cultures were treated with the GAP amino acids or 12- hydroxystearic acid, alone or in combination. The vehicle control consisted of cells treated with the vehicle GAP (0.002 mM NaOH), and/or additional test reagent vehicle, . After treatment, cells were again incubated for 72 hours in a humidified incubator at 37° C. with 5% CO2 atmosphere. At the end of the 72 hour incubation, the culture medium was replaced with 120 uL/well of melanin content assay reagent (10% DMSO in 1M sodium hydroxide) and incubated for 1 hour at 60° C. in a shaker incubator. The supernatant was then transferred to a 384 well plate. The absorbance was measured by spectrophotometric analysis at 405 nm with a micro plate reader (GEnios Pro, Tecan).
The spectrophotometric optical density at 405 nm for untreated cells (no active) was considered as 100% melanin content. Relative melanin content for treated samples was calculated with normalization based on the untreated (media/vehicle) control.

Consider `N[C@@H](CSSC[C@H](N)C(=O)O)C(=O)O` [cystine], for which the “solubility in aqueous solutions” value in data set [1] is given as “more soluble”.
Turning to `COC(=O)[C@@H](N)CSSC[C@H](N)C(=O)OC.Cl.Cl` [CDME, L-Cystine dimethyl ester dihydrochloride], the “Glutathione Synthesis, % Protection (improvement vs. vehicle control + menadione)” value (from here on “Glutathione Synthesis, % Protection”) with Human Keratinocytes [2] (80 uM + menadione) is 31^1,2%. Besides, in the data set on Human Keratinocytes [3], the activity at 20 µM turned out to be 108%, the activity at 40 µM was 111%, the activity at 80 µM came to 114% and the activity at 160 µM came to 97.9%. In the data set on Human Keratinocytes [4] (20 uM + menadione), the viability at 20 µM worked out at 90.9%. Moreover, the viability at 40 µM with Human Keratinocytes [4] (40 uM + menadione) is 93.1%. In addition, the viability at 80 µM with Human Keratinocytes [4] (80 uM + menadione) was determined as 87%. Also, the viability at 160 µM with Human Keratinocytes [4] was determined as 106%.
On to `CCCCCCc1ccc(O)cc1O` [HR, 4-hexylresorcinol, reference compound], for which the inhibition at 10 µM in data set [5] (10 uM) worked out at 39%.
Take `CC(C)(C)OC(=O)[C@@H](N)CSSC[C@H](N)C(=O)OC(C)(C)C.Cl.Cl` [DTBC, Ditert-butyl L-cystinate dihydrochloride]: in the data set with Human Keratinocytes [2] (40 uM + menadione), the “Glutathione Synthesis, % Protection” value is 0^1% and the “Glutathione Synthesis, Mean (μm glutathione)” value (“Glutathione Synthesis, Mean” for short) was 0.17^1 μm. In the data set with Human Keratinocytes [2] (80 uM + menadione), the “Glutathione Synthesis, % Protection” value is 1^1% and the “Glutathione Synthesis, Mean” value is reported as 0.19^1 μm. Also, in the data set on Human Keratinocytes [3], the “ROS % Protection (improvement vs. vehicle control + menadione)” value was 2.2%, the activity at 20 µM stood at 367%, the activity at 40 µM was found to be 324% and the activity at 80 µM turned out to be 269%. Further, the activity at 160 µM with Human Keratinocytes [3] is 221%. For the same molecule, in the data set on Human Keratinocytes [4] (20 uM + menadione), the “Cell viability % protection (improvement vs. vehicle control + menadione)” value (from here on “Cell viability % protection”) is recorded as 6.0^1% and the viability at 20 µM amounted to 78.1%. In the data set with Human Keratinocytes [4] (40 uM + menadione), the “Cell viability % protection” value is listed as 3.0^1% and the viability at 40 µM is 75.9%. Besides, in the data set on Human Keratinocytes [4] (80 uM + menadione), the “Cell viability % protection” value was −0.1^1% and the viability at 80 µM was 73.6%. For the same molecule, in the data set on Human Keratinocytes [4], the viability at 160 µM stood at 104%.
For `CCCCCCC(O)CCCCCCCCCCC(=O)O` (stereo not shown) [12-Hydroxystearic Acid, 12-hydroxystearic acid], the inhibition at 4 µM in data set [5] (12-Hydroxystearic Acid 4 uM, alone or with GAP) is 7%. Also, in data set [5] (12-Hydroxystearic Acid 8 uM, alone or with GAP), the inhibition at 8 µM worked out at 10%.
For the molecule `CCOC(=O)[C@@H](N)CSSC[C@H](N)C(=O)OCC.Cl.Cl` [DEC, Diethyl L-cystinate dihydrochloride], in the data set on Human Keratinocytes [2] (40 uM + menadione), the “Glutathione Synthesis, % Protection” value is recorded as 13^1,2% and the “Glutathione Synthesis, Mean” value is listed as 0.54^1,2 μm. For the same molecule, in the data set on Human Keratinocytes [3], the “ROS % Protection (improvement vs. vehicle control + menadione)” value is reported as 38.0^1,2%, the activity at 20 µM turned out to be 233%, the activity at 40 µM came to 212% and the activity at 80 µM turned out to be 234%. Further, the activity at 160 µM in the data set on Human Keratinocytes [3] is 254%. Also, the viability at 20 µM with Human Keratinocytes [4] (20 uM + menadione) is 110%. For the same molecule, in the data set with Human Keratinocytes [4] (40 uM + menadione), the viability at 40 µM was 127%. In the data set with Human Keratinocytes [4] (80 uM + menadione), the viability at 80 µM was 132%. Also, the viability at 160 µM in the data set with Human Keratinocytes [4] was 122%.

(Values after patent publication US20200009034A1, “TOPICAL SKIN LIGHTENING ADDITIVE AND COMPOSITION WITH AMINO ACIDS AND PPAR ACTIVATING FATTY ACIDS” (Conopco, Inc., d/b/a UNILEVER, priority 2017, published 2020).)
